Data as given in paper PMC9032516, “Targeting Zika Virus with New Brain- and Placenta-Crossing Peptide–Porphyrin Conjugates” (Pharmaceutics, 2022).
Where a name gives a salt, the structure may show the parent alone. Read-outs that look alike come from different tables or passages of the source. No end group written: not given here.

Columns and labels:
[1] = system: HBEC-5i human brain endothelia monolayer (in vitro BBB model); experiment: In vitro BBB integrity assay (FD4 permeability after incubation); format: cell-based
Experimental: After 24 h incubation with PPCs, cells were washed with PBS and DMEM:F12 medium without phenol red. […] Three independent replicates were performed.

ZIKV^BR = experiment: ZIKV inactivation assay (plaque assay on Vero cells); format: cell-based, Zika virus; conditions: 10^5 PFU ZIKV^BR pre-treated 1 h at 37 °C in the dark with 0.01–50 µM, titrated by plaque assay on Vero cells, three independent replicates
Experimental: After infection, cells were cultured for 7 days.
Three independent replicates were performed.

HIV = system: HIV; set-up: method as in 2 sources, one per row (each row's own in cited_ref): ref [24] as printed in Table 2, ref [2] in supplement ||| ref 23 = [23]; PMID 34033716; doi:10.1021/acs.bioconjchem.1c00123; 23. Mendonça D.A. Bakker M. Cruz-Oliveira C. Neves V. Jiménez M.A. Defaus S. Cavaco M. Veiga A.S. Cadima-Couto I. Castanho M.A.R.B. Penetrating the Blood-Brain Barrier with New Peptide–Porphyrin Conju; conditions: in vitro; values marked a; ref [24] as printed in Table 2, ref [2] in supplement; cited from earlier work
Serum stability = format: in vitro ADME; conditions: human serum diluted 1:1 (v/v) with HEPES buffer, 0.05 mM in 1:1 human serum / HEPES buffer (10 mM, NaCl 150 mM, pH 7.8), 37 °C, methanol precipitation, three independent replicates, read-out: t1/2 in human serum (converted)
Experimental: Next, 600 µL of conjugate/peptide solution were mixed (1:1 v/v) with 600 µL of human serum, to a 0.05 mM final concentration. The mixture was incubated at 37 °C and, at various time points, 50 µL (in triplicate) were taken and precipitated with 200 µL cold methanol. The samples were centrifuged at 13,000 rpm, 10 min, +4 °C. Afterwards, 50 µL of each supernatant were injected on an LC-20AD instrument (Shimadzu) equipped with a Luna C18 column (4.6 mm × 50 mm, 3 µm, Phenomenex, Torrance, CA, USA) and analysed using a 0–95% linear gradient of MeCN into 0.1% TFA in H2O over 15 min with 1 mL/min flow rate. PDA detection at 220 nm and 401 nm was used and the half-life times were calculated by peak area integration at 401 nm, the λmax of MP and PP. Controls included blank serum (25 µL each of 1:1 v/v serum + HEPES buffer, then precipitation with 200 µL cold methanol), untreated conjugate/peptide (25 µL of 0.1 mM stock in HEPES buffer + 25 µL HEPES buffer, then precipitation with 200 µL cold methanol), and a zero-time sample (200 µL cold methanol + 25 µL serum + 25 µL 0.1 mM conjugate/peptide stock); the conjugate/peptide was added last to avoid any contact with protease. Controls were analysed by LC and LC-MS as above. Three independent replicates were performed.

With `O=C(O)CN(CCOCCOCCN(CC(=O)O)CC(=O)O)CC(=O)O` [EGTA] the “FD4 permeability post-translocation (Basolateral Content), BBB” value [1] was 29.6%.

In the case of `CCC1=C(C)c2cc3[nH]c(cc4[nH]c(cc5nc(cc1n2)C(C)=C5CC)c(C)c4CCC(=O)O)c(CCC(=O)O)c3C` [MP, Mesoporphyrin IX dihydrochloride], the IC50 (ZIKV^BR) is listed as greater than 50 µM and the IC50 (HIV) is listed as greater than 50 µM.

In the case of `C=CC1=C(C)c2cc3[nH]c(cc4nc(cc5[nH]c(cc1n2)c(C)c5CCC(=O)O)C(CCC(=O)O)=C4C)c(C)c3C=C` [PP, protoporphyrin IX], the “FD4 permeability post-translocation (Basolateral Content), BBB” value ([1]; HBEC-5i monolayer after 24 h incubation with 10 µM compound, 4 kDa FITC-dextran apical, 2 h, fluorescence, three independent replicates, black bars Figure 1B, control (cells only) 10.3%) is listed as 24.7%, the “increase in FD4 permeability over control values, BBB” value ([1]; HBEC-5i monolayer, 24.7% versus control 10.3%) is listed as 2.5 fold and the IC50 (HIV) is listed as greater than 50 µM.

Compound SGTQEEY-NH2 [P5, SGTQEEY-amide] has a half-life at 0.05 mM (Serum stability; over 24 h, HPLC peak area (401 nm for porphyrins)) of 2.2 h.

For VQQLTKRFSL-NH2 [P1], the half-life at 0.05 mM (Serum stability; HPLC) was 0.733 h.
